According to patent publication US10046050B2, “Targeting immunotherapy for amyloidosis” (UNIVERSITY OF TENNESSEE RESEARCH FOUNDATION, priority 2014, dated 2018):
pKd: −log10 of the molar value. Like-named read-outs stand apart in the source and are kept apart here.

Tests used:
[1] = tested on: mAb clones 4, 5, 12, and 13; assay: ELISA capture of negative control biotinylated peptides by plate-adsorbed mAb clones; assay type: binding, murine; conditions: 100 ng/well
Method: More particularly, 96-well ELISA microplates were coated overnight with the indicated mAbs (500 ng/well), the wells were blocked with PBS/BSA solution before addition of biotinylated p5+14 peptide (100 ng/well). Biotinylated peptides, p5R and p31G (aka p5G) were used as a negative control. Following a wash step, detection of captured peptide was achieved by addition of europium-conjugated streptavidin as described above.

mAb 7D8 = assay: Surface plasmon resonance of mAb 7D8 binding to amino-coupled peptopes; conditions: 7D8 2.7 nM; for pKd: read-out: KD
Method: Analyses were performed using a BIAcore X surface plasmon resonance instrument (GE Healthcare) and all reagents were obtained from GE Healthcare. For chip preparation, the peptides were attached to CM-5 chips using the amino-coupling method supplied with the instrument software. Briefly, chips were activated by injection (35 μL) of a mixture of ECD/NHS at a flow rate of 5 μL/min. Immediately thereafter, 35 μL of the test peptide (peptope p75, p76, p77, or p78), diluted to 1 μg/mL in NaOAc buffer, pH 5.5, was injected. After peptide coupling, the remaining active groups on the chip were blocked by injection of 35 μL of 1 M ethanolamine-HCl pH 8.5. Test peptides p75, p76, p77, or p78 were coupled to the Fc-1 channel and peptide p5, which served as a control, was coupled to the Fc-2 channel. A sensorgram was initiated on each chip in HBS-EP buffer at 10 μL per min. An initial regeneration step consisting of a 20 μL injection of pH 2.5 glycine buffer was performed and the baseline allowed to equilibrate. Antibody 7D8 was diluted to a stock of 10 μg/mL in HBS-EP buffer which was further diluted to a 0.4 μg/mL (˜2.7 nM) working dilution immediately before injection. The antibody was injected (50 μL) and the data collected for 200 seconds using a delayed wash cycle. The chip was subjected to a regeneration step before the next test injection. Binding data were extracted from the sensorgram, aligned, and analyzed using the BIAevaluation software by fitting to the following binding models (i) Langmuir, (ii) Langmuir with mass transfer, and (iii) Interaction of a bivalent analyte [A+B→AB; AB+B→AB2].

| Substance | Rmax (RU) (mAb 7D8; Bivalent Analyte) | ka1 (mAb 7D8; Bivalent Analyte) | ka2 (1/RUs) (mAb 7D8; Bivalent Analyte) | kd1 (mAb 7D8; Bivalent Analyte) | kd2 (mAb 7D8; Bivalent Analyte) | KA (mAb 7D8; Langmuir with Mass Transfer) | Req (RU) (mAb 7D8; Langmuir with Mass Transfer) | Rmax (RU) (mAb 7D8; Langmuir with Mass Transfer) | ka (mAb 7D8; Langmuir with Mass Transfer) | kd (mAb 7D8; Langmuir with Mass Transfer) | kobs (mAb 7D8; Langmuir with Mass Transfer) | kt (RU/(M*s)) (mAb 7D8; Langmuir with Mass Transfer) | pKd (mAb 7D8; Langmuir with Mass Transfer) | KA (mAb 7D8; Langmuir) | Req (RU) (mAb 7D8; Langmuir) | Rmax (RU) (mAb 7D8; Langmuir) | ka (mAb 7D8; Langmuir) | kd (mAb 7D8; Langmuir) | kobs (mAb 7D8; Langmuir) | pKd (mAb 7D8; Langmuir) | further results |
| --- | --- | --- | --- | --- | --- | --- | --- | --- | --- | --- | --- | --- | --- | --- | --- | --- | --- | --- | --- | --- | --- |
| GAQGAQAGQAGQAQGAQGAQAGQAGQ (GAQGAQAGQAGQAQGAQGAQAGQAGQ; Peptide p5G) | – | – | – | – | – | – | – | – | – | – | – | – | – | – | – | – | – | – | – | – | capture of biotinylated peptide by adsorbed mAb clones [1]: not captured |
| RAQRAQARQARQAQRAQRAQARQARQ (RAQRAQARQARQAQRAQRAQARQARQ; Peptide p5R) | – | – | – | – | – | – | – | – | – | – | – | – | – | – | – | – | – | – | – | – | capture of biotinylated peptide by adsorbed mAb clones [1]: not captured |

Now from value to substance, other results behind:

| Rmax (RU) (mAb 7D8; Bivalent Analyte) | ka1 (mAb 7D8; Bivalent Analyte) | ka2 (1/RUs) (mAb 7D8; Bivalent Analyte) | kd1 (mAb 7D8; Bivalent Analyte) | kd2 (mAb 7D8; Bivalent Analyte) | KA (mAb 7D8; Langmuir with Mass Transfer) | Req (RU) (mAb 7D8; Langmuir with Mass Transfer) | Rmax (RU) (mAb 7D8; Langmuir with Mass Transfer) | ka (mAb 7D8; Langmuir with Mass Transfer) | kd (mAb 7D8; Langmuir with Mass Transfer) | kobs (mAb 7D8; Langmuir with Mass Transfer) | kt (RU/(M*s)) (mAb 7D8; Langmuir with Mass Transfer) | pKd (mAb 7D8; Langmuir with Mass Transfer) | KA (mAb 7D8; Langmuir) | Req (RU) (mAb 7D8; Langmuir) | Rmax (RU) (mAb 7D8; Langmuir) | ka (mAb 7D8; Langmuir) | kd (mAb 7D8; Langmuir) | kobs (mAb 7D8; Langmuir) | pKd (mAb 7D8; Langmuir) | Substance | further results |
| --- | --- | --- | --- | --- | --- | --- | --- | --- | --- | --- | --- | --- | --- | --- | --- | --- | --- | --- | --- | --- | --- |
| 861 RU | 609000 M⁻¹ s⁻¹ | 2.38E−03 1/RUs | 0.0736 s⁻¹ | 0.0774 s⁻¹ | 6.33e+08 M⁻¹ | 191 RU | 302 RU | 8.96e+06 M⁻¹ s⁻¹ | 0.0137 s⁻¹ | 0.0372 s⁻¹ | 1.43E+09 RU/(M*s) | 8.80 | 4.43e+08 M⁻¹ | 191 RU | 351 RU | 2.95e+06 M⁻¹ s⁻¹ | 0.00667 s⁻¹ | 0.0146 s⁻¹ | 8.65 | KAQKAQAKQAKQAQKAQKAQAKQAKQGGGHEDT [p76, KAQKAQAKQAKQAQKAQKAQAKQAKQGGGHEDT] | – |
| 5.43E+03 RU | 44600 M⁻¹ s⁻¹ | 3.76E−05 1/RUs | 0.0295 s⁻¹ | 0.0224 s⁻¹ | 3e+08 M⁻¹ | 192 RU | 429 RU | 1.96e+08 M⁻¹ s⁻¹ | 0.653 s⁻¹ | 1.18 s⁻¹ | 4.57E+08 RU/(M*s) | 8.48 | 1.04e+07 M⁻¹ | 223 RU | 8.16E+03 RU | 51900 M⁻¹ s⁻¹ | 0.00498 s⁻¹ | 0.00512 s⁻¹ | 7.02 | KAQKAQAKQAKQAQKAQKAQAKQAKQGPGHEDT [p77, KAQKAQAKQAKQAQKAQKAQAKQAKQGPGHEDT] | – |
| 9.16E+03 RU | 63700 M⁻¹ s⁻¹ | 1.10E−07 1/RUs | 0.00972 s⁻¹ | 2.63e-05 s⁻¹ | 6.85e+08 M⁻¹ | 326 RU | 502 RU | 1.29e+07 M⁻¹ s⁻¹ | 0.0188 s⁻¹ | 0.0536 s⁻¹ | 1.65E+09 RU/(M*s) | 8.84 | 4.05e+08 M⁻¹ | 331 RU | 633 RU | 2.42e+06 M⁻¹ s⁻¹ | 0.00598 s⁻¹ | 0.0125 s⁻¹ | 8.61 | KAQKAQAKQAKQAQKAQKAQAKQAKQVTVHEDT [p78, KAQKAQAKQAKQAQKAQKAQAKQAKQVTVHEDT] | – |
